Test results as given in patent publication US9206232B2, “Organic compounds and their uses” (Novartis AG, priority 2009, dated 2015).

Legend:
[1] = biological target: HCV NS3-4A serine protease (full-length NS3-4A protein) (Hepatitis C virus genotype 1a (isolate 1) (HCV), UniProt P26664); assay: HCV NS3-4A protease assay; assay type: biochemical, HCV genotype 1a; conditions: genotype 1a strain HCV-1, fluorogenic peptide substrate, read-out: Protease assay Ex. 12 IC50
Procedure: The inhibitory activity of certain compounds of Table A against HCV NS3-4A serine protease is determined in a homogenous assay using the full-length NS3-4A protein (genotype 1a, strain HCV-1) and a commercially available internally-quenched fluorogenic peptide substrate as described by Taliani, M., et al. 1996 Anal. Biochem. 240:60-67, which is incorporated by reference in its entirety.

[2] = system: HCV; conditions: ribavirin alone; cited from earlier work

Chain of HCV NS3-4A serine protease (full-length NS3-4A protein) (P26664 1027-1657): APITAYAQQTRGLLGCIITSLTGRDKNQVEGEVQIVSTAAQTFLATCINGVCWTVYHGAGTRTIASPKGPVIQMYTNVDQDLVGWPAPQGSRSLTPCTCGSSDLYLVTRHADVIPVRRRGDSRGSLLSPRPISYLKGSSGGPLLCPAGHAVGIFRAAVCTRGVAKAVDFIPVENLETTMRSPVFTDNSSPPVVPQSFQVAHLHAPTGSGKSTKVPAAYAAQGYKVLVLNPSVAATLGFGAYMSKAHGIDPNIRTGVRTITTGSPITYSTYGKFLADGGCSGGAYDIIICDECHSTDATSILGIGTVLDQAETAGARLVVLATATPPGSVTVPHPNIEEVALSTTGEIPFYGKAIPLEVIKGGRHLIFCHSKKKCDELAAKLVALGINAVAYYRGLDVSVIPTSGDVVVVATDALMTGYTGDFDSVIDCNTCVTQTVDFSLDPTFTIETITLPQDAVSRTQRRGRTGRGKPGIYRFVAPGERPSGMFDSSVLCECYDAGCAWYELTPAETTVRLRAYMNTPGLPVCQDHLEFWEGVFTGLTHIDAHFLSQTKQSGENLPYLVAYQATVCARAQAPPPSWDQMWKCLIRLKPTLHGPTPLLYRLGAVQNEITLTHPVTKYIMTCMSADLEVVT
Chain of HCV NS3-4A serine protease (full-length NS3-4A protein) (P26664 1658-1711 partner): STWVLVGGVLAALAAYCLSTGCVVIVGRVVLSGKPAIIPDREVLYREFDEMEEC

SMILES | IC50 [1] [nM] | effect on serum levels of HCV-RNA [2] | patients with serum amino transferase levels reduced to normal [2]
[2H]C([2H])([2H])C([2H])(N1CCCC[C@H]1C(=O)NC(C(=O)N[C@H](C(=O)N1C[C@]2(C[C@H]1C(=O)N[C@]1(C(=O)NS(=O)(=O)N3CCCC3)C[C@H]1C=C)C(C)(C)C21CCC1)C(C)(C)C)C1CCCCC1)C([2H])([2H])[2H] (some centres unmarked) [Compound 145] | 5.9 |  | 
C=C[C@@H]1C[C@]1(NC(=O)[C@@H]1C[C@@]2(CN1C(=O)[C@@H](NC(=O)[C@@H](NC(=O)[C@@H]1Cc3[nH]cnc3CN1)C(C)(C)C)C(C)(C)C)C(C)(C)C21CCC1)C(=O)NS(=O)(=O)N1CCCC1 [Example 29, (5R,8S)-7-[(2S)-2-{[(2S)-3,3-dimethyl-2-{[(6S)-4,5,6,7-tetrahydro-1H-imidazo[4,5-c]pyridin-6-ylcarbonyl]amino}butanoyl]amino}-3,3-dimethylbutanoyl]-10,10-dimethyl-N-{(1 R,2S)-1-[(pyrrolidin-1-ylsulfonyl)carbamoyl]-2-vinylcyclopropyl}-7-azadispiro[3.0.4.1]decane-8-carboxamide] | 40 |  | 
C=C[C@@H]1C[C@]1(NC(=O)[C@@H]1C[C@@]2(CN1C(=O)[C@@H](NC(=O)[C@@H](NC(=O)[C@@H]1CCCCN1C(C)C)C1CCCCC1)C1CCCC1)C(C)(C)C21CCC1)C(=O)NS(=O)(=O)N1CCCC1 [Example 66, (5R,8S)-7-[(2S)-2-{[(2S)-2-cyclohexyl-2-({[(2S)-1-isopropylpiperidin-2-yl]carbonyl}amino)acetyl]amino}-2-cyclopentylacetyl]-10,10-dimethyl-N-{(1R,2S)-1-[(pyrrolidin-1-ylsulfonyl)carbamoyl]-2-vinylcyclopropyl}-7-azadispiro[3.0.4.1]decane-8-carboxamide] | 5.5 |  | 
NC(=O)c1ncn([C@@H]2O[C@H](CO)[C@@H](O)[C@H]2O)n1 [Ribavirin, ribavirin] |  | does not lower serum levels of HCV-RNA | 40 % of patients
